According to ChEMBL document CHEMBL1155256, “A new small molecule that directly inhibits the DNA binding of NF-kappaB” (Bioorg Med Chem, 2009):

Each compound was assayed against T1, Nuclear factor NF-kappa-B p105 subunit (Homo sapiens, UniProt P19838) (assay: Inhibition of GST-fused human NF-kappaB p50 subunit DNA binding activity assessed as shortened diffusion time by fluorescence correlation spectroscopy).
T1 sequence (P19838 whole entry): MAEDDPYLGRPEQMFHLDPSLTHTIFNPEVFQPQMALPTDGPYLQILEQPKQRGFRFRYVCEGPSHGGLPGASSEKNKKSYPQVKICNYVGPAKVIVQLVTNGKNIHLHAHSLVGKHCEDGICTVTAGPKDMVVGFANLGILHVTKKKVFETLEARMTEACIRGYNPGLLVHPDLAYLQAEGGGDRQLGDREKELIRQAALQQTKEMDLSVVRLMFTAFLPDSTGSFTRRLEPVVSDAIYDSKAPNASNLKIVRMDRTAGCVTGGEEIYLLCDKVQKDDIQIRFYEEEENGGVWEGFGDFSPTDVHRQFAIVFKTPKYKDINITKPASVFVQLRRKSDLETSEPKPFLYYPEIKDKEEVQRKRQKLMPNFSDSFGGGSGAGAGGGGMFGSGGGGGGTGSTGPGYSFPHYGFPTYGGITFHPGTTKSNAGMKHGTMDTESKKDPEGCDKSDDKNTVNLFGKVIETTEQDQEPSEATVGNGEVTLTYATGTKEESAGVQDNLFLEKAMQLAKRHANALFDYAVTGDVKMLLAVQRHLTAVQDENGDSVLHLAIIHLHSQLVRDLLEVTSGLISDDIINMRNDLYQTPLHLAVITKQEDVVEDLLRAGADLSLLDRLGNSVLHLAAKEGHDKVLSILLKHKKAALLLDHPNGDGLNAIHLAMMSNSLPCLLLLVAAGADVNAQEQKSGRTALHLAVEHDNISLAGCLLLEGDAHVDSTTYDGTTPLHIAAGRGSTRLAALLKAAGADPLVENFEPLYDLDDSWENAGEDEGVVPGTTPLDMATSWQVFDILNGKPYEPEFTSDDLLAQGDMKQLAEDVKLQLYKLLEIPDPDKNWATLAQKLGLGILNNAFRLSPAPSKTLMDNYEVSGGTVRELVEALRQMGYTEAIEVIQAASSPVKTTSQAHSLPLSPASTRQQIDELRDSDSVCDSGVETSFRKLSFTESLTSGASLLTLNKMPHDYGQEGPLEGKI

Q: `CC(C)c1ccc(Nc2nc(Cl)nc(Cl)n2)cc1` was tested. Which IC50 did it give?
A: Its IC50 is 74.4 µM.

Q: How did the IC50 turn out when `Cc1cccc(Nc2nc(Cl)nc(Cl)n2)c1` was run?
A: Its IC50 is 19 µM.

Q: Which IC50 does the source give for `O=[N+]([O-])c1cccc(Nc2nc(Cl)nc(Cl)n2)c1` here?
A: The IC50 was 119 µM.

Q: For `O=[N+]([O-])c1ccc(Nc2nc(Cl)nc(Cl)n2)cc1`, which IC50 is on record?
A: Its IC50 is > 300 µM.

Q: For `Clc1ccc(Nc2nc(Cl)nc(Cl)n2)cc1`, which IC50 is on record?
A: The IC50 was 110 µM.

Q: How did the IC50 turn out when `Clc1nc(Cl)nc(Nc2ccccc2)n1` was run?
A: Its IC50 is 28.6 µM.
